Like-named read-outs stand apart in the source and are kept apart here.

For series [1], the target named is T1, LBD of LXRα (Homo sapiens, UniProt Q13133).
T1 construct: after addition of LXRα/β-LBD to the derivatives; purchased Thermo Fisher Scientific
T1 sequence (Q13133 209-447 limits assumed): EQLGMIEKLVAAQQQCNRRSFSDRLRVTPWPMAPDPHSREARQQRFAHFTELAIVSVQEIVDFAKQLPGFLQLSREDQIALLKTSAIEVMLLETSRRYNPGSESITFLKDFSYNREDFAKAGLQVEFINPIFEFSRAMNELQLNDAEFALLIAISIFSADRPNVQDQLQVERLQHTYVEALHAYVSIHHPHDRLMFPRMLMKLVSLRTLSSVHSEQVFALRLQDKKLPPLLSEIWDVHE
The experiment in a line: LanthaScreen TR-FRET LXRα coactivator assay (LXR binding assay). Format: biochemical. The method, then:
(§1) Binding assays of graded concentrations of vitamin D3 or lumisterol hydroxyderivatives to LXRα/β were performed using the LanthaScreen TR-FRET LXRα/β Coactivator kit (Thermo Fisher Scientific, Inc., Waltham, MA) following the manufacture’s protocol. Briefly, after addition of LXRα/β-LBD to the derivatives, a mixture of peptide (Fluorescein-TRAP220/DRIP-2 for LXRα or Fluorescein-D22 for LXRβ) and antibody (Tb-anti-GST) was added to the reaction followed by incubation in room temperature for 2 h. TR-FRET ratio was calculated by dividing the emission at 520 nm by the emission at 495 nm using Synergy neo2 (BioTek, Winooski, VT).
On the technique in general: TR-FRET usually uses a lanthanide donor and a delayed reading to cut background.

Series [2] concerns the target T2, LBD of LXRβ (Homo sapiens, UniProt P55055).
T2 construct: purchased Thermo Fisher Scientific
T2 sequence (P55055 222-460 limits assumed): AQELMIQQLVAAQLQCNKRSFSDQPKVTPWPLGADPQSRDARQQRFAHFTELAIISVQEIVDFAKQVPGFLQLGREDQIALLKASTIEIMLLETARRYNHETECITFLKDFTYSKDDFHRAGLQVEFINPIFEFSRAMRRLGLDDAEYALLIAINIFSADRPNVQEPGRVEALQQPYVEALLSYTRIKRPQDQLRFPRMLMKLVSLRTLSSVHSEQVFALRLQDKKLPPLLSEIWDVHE
The experiment in a line: LanthaScreen TR-FRET LXRβ coactivator assay (LXR binding assay). It counts as biochemical. The protocol: as §1

Series [3] has as its target T3, LXRα (Homo sapiens, UniProt Q13133).
T3 construct: endogenous in cells; host or cells: HaCaT keratinocytes
T3 sequence (Q13133 1-447): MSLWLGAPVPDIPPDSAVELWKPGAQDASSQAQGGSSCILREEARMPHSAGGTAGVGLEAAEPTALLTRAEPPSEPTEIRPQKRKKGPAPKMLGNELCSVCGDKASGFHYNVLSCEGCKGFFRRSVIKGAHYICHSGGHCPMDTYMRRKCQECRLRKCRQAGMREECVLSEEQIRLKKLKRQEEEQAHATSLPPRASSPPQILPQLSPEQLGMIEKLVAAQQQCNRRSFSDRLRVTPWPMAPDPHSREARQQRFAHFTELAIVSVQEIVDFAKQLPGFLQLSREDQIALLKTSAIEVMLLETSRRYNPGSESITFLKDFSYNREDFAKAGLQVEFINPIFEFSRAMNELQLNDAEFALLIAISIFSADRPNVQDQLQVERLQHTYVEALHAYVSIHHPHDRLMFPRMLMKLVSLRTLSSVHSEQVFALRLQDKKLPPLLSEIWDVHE
The experiment in a line: Ligand induced translocation of LXRα to the nucleus, immunofluorescence in HaCaT. Format: cell-based. The note with it: 10^−7 M, 24 h. The method, then:
(§2) HaCaT cells were plated in DMEM plus 5% cFBS either on a sterile glass cover slip placed in a well of a 6-well plates for immunofluorescence (IF) assays or TPP Petri dishes for image-stream flow cytometry, and treated with 10^–7 M D3- or L3-hydroxyderivatives or 0.1% ethanol (vehicle) as a negative control was added to each well, and the cells were incubated for 12 or 24 h at 37 °C with 5% CO2. For IF the cells were fixed in 4% paraformaldehyde for 15 min, incubated in 0.5% Triton X-100 in phosphate-buffered saline (PBS) for 5 min, and washed 3 times in PBS. After blocking with 2% bovine serum albumin (BSA) in PBS for 1 h at room temperature, the cells were treated with an anti-LXRα antibody (Novus Biologicals, LLC, Centennial, CO) at 1:200 in PBS supplemented with 2% BSA overnight in 4 °C. After washing the slides were incubated with a mouse anti-rabbit IgG-FITC (Santa Cruz Biotechnology, Inc, Dallas, TX) at 1:200 dilution for 1.5 h at 37 °C. After washing the slides were mounted using propidium iodide (PI) (Vector Labs, Burlingame, California) as a nuclear counterstain. The slides were examined using a KEYENCE America BZ-X710 Fluorescence Microscope (Itasca, IL). The images were subsequently analyzed using the JACoP plugin for colocalization analysis with ImageJ[74]. Five separate high-power field (40×) images were converted to grayscale and analyzed for each condition. Manders’ coefficient (M1), calculated using a preset threshold, was used to quantify the degree of colocalization between PI and LXRα with 0 representing no colocalization, and 1 representing perfect colocalization.

Series [4] has as its system LXRα/β. As to the kind of experiment: Ligand induced translocation of LXRα/β to the nucleus, imaging flow cytometry in HaCaT. Format: cell-based, human. The note with it: 10^–7 M, 12 h. The method, then: as §2
For Image Stream II (Amnis, Seattle, WA, USA) cytometer analyses, HaCaT cells were detached and processed as previously described. The cells were fixed with paraformaldehyde and permeabilized in methanol containing buffer[78],[79] and Hoechst stain (r37165, ThermoFisher) and rabbit antibodies to LXRα/β (sc 377260, AF 647, SantaCruz) or VDR (sc-13133, AF 488, SantaCruz) as described previously. Data were analyzed using IDEAS software (Amnis, Seattle, WA, USA).

Series [5] has as its target T4, VDR (Homo sapiens, UniProt P11473).
T4 construct: endogenous in cells; host or cells: HaCaT keratinocytes
T4 sequence (P11473 1-427): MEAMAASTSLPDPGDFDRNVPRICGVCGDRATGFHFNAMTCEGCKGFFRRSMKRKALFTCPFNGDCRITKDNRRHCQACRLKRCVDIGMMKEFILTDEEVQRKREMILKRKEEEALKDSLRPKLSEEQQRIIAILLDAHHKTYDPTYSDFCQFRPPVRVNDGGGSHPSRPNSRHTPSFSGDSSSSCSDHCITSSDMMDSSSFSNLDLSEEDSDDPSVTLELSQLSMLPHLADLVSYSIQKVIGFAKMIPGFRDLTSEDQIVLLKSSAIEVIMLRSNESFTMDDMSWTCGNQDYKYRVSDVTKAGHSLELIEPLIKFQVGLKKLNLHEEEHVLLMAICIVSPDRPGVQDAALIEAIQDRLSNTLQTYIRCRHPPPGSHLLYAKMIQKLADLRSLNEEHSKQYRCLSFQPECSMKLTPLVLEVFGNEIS
The experiment in a line: Translocation of VDR to the nucleus, imaging flow cytometry in HaCaT. It counts as cell-based. The note with it: 10^–7 M, 12 h.

Series [6] relates to genes downstream of LXR. The experiment in a line: qPCR of genes downstream of LXR in murine dermal fibroblasts. The settings on record: 10^–7 M, 24 h. Format: cell-based, mouse. The protocol: All animal studies followed guidelines outlined by the NIH Guide for the Care and Use of Laboratory Animals and protocols were approved by the Institutional Animal Care and Use Committee at the NIEHS or the UAB. The study was carried out in compliance with the ARRIVE guidelines (http://www.nc3rs.org.uk/page.asp?id=1357). Skin samples from newborn C57BL/6 mice were collected at the NIEHS. Dermal fibroblasts were isolated from the skin of newborn mice, 1–2 day old. Briefly, we followed the protocols described previously. The skin was washed in PBS, cut into smaller pieces and incubated in 2.4 U/ml of dispase II (Roche) overnight at 4 °C. The dermis was separated from the epidermis and incubated in 0.1% collagenase (Roche) at 4 °C overnight. Next day, it was cut into smaller pieces and incubated for 1 h in 0.25% Trypsin (CellGrow) at 37 °C. Single cell suspension was prepared by pipetting and draining through a cell strainer. After centrifugation, cell pellets were suspended in DMEM medium containing 10% charcoal-stripped fetal bovine serum (cFBS), mouse fibroblasts growth factor (FGF) and 1% antibiotic, and inoculated into tissue culture dishes (Midwest Scientific, TPP). Cells, in early passages, from different mice were pooled together to provide representative samples for experiments. Fibroblasts were cultured in Petri dishes (10 cm in diameter) in DMEM and 10% cFBS and triplicate semi-confluent cultures were treated as described.
RNA isolated from either fibroblasts, HaCaT cells or brain was submitted for cDNA synthesis (High Capacity cDNA Reverse Transcription Kit with RNase Inhibitor, Applied Biosystems) following the manufacturers’ protocols. RT-PCR was carried out using Cyber green, in triplicates; as previously described. Approximately, 750 ng of cDNA was used for PCR reactions. GAPDH and CIC-B were used as internal controls. Primer sequences are listed in Supplementary Table 27. Data were analyzed using GraphPad Prism statistical software one way ANOVA or t-test, where appropriate; *p < 0.05; **p < 0.01; ***p < 0.001.

The mark [7] stands for this setting: agonist, average values, read-out: LXRα EC50.
Setting [8] is: agonist, average values, read-out: LXRβ EC50.

On to `C[C@@H](CO)CCC[C@@H](C)[C@H]1CC[C@H]2C3=CC=C4C[C@@H](O)CC[C@@]4(C)[C@@H]3CC[C@]12C` [(25R)-27(OH)L3], for which the EC50 (usually the midpoint of the concentration-response curve) in series [1] (setting [7]) amounted to 0.82 µM; in series [2] (setting [8]) it was 0.55 µM.

For the compound `CC(C)CCC(O)C(C)(O)C1CCC2C3=CC=C4CC(O)CCC4(C)C3CCC21C` (stereo not drawn) [20,22(OH)2L3], the EC50 in series [1] (setting [7]) came out at 1.5 µM; in series [2] (setting [8]), 2 µM. The “translocation of LXRα to the nucleus (immunofluorescence, Manders' coefficient)” value (shortened to “translocation of LXRα to the nucleus”) in series [3] is given as “induced translocation”. The “translocation of LXRα/β from the cytoplasm to the nucleus” value (“translocation of LXRα/β” below) in series [4] was “increased translocation”. In series [5], the “translocation of VDR from the cytoplasm to the nucleus” value (shortened to “translocation of VDR”) is on record as “increased translocation”.

In the case of `CC(C)CCC[C@](C)(O)[C@H]1CC[C@H]2C3=CC=C4C[C@@H](O)CC[C@@]4(C)[C@@H]3CC[C@@]21C` [20(OH)L3], the EC50 in series [1] (setting [7]) stood at 1.8 µM. In addition, the concentration for a half-maximal effect (EC50) in series [2] (setting [8]) came out at 0.021 µM. Also, in series [6], the Abca1 expression entry is recorded as “inhibited”, the Abcg8 expression result is listed as “inhibited”, the “ApoE (apolipoprotein E) expression” value was “inhibited” and the Cyp7a1 expression result is given as “inhibited”. For the same compound, the “Lpl (lipoprotein lipase) expression” value in series [6] was “inhibited”. Also, in series [3], the “translocation of LXRα to the nucleus” value is listed as “induced translocation”. The “translocation of LXRα/β” value in series [4] is recorded as “increased translocation”. The “translocation of VDR” value in series [5] was “increased translocation”.

Turning to `CC(C)CCC(O)[C@@H](C)[C@H]1CC[C@H]2C3=CC=C4C[C@@H](O)CC[C@@]4(C)[C@@H]3CC[C@]12C` (stereo partly drawn) [22(OH)L3], the EC50 in series [1] (setting [7]) is 0.64 µM; in series [2] (setting [8]), 14 µM.

With `C=C1CC[C@H](O)C/C1=C/C=C1\CCC[C@]2(C)[C@@H]([C@H](C)CCCC(C)C)CC[C@@H]12` [D3, Vitamin D3, reference compound], the EC50 was 0.76 µM in series [1] and 0.89 µM in series [2].

In the case of `C=C1CC[C@H](O)C/C1=C/C=C1\CCC[C@@]2(C)[C@H]1CC[C@@H]2[C@@](C)(O)CCCC(C)(C)O` [20,25(OH)2D3], the results for the concentration giving a half-maximal response (EC50) in series [1] (setting [7]) and in series [2] (setting [8]) were 0.35 µM and 2.1 µM, respectively.

Consider `CC(CCCC(C)(C)O)[C@H]1CC[C@H]2C3=CC=C4C[C@@H](O)CC[C@@]4(C)[C@@H]3CC[C@]12C` (stereo partly drawn) [25(OH)L3], for which the EC50 in series [1] (setting [7]) amounted to 0.14 µM; in series [2] (setting [8]), 1.9 µM.

For the compound `C=C1/C(=C\C=C2/CCC[C@@]3(C)[C@H]2CC[C@@H]3[C@@](C)(O)CCCC(C)C)C[C@@H](O)C[C@@H]1O` [1,20(OH)2D3], the EC50 in series [2] (setting [8]) is 0.27 µM. Also, in series [6], the “ApoE (apolipoprotein E) expression” value is reported as “enhanced” and the Cyp7a1 expression result is “inhibited”. The “translocation of LXRα to the nucleus” value in series [3] is given as “induced translocation”. In addition, the “translocation of LXRα/β” value in series [4] was “increased translocation”. Also, in series [5], the “translocation of VDR” value is “increased translocation”.

Consider `CC(C)CCC[C@@H](C)[C@H]1CC[C@H]2C3=CC=C4C[C@@H](O)CC[C@@]4(C)[C@@H]3CC[C@]12C` [L3, lumisterol], for which the figures for the concentration giving a half-maximal response (EC50) in series [1] (setting [7]) and in series [2] (setting [8]) were 0.25 µM and 0.11 µM, respectively.

Turning to `CC(CC[C@H](O)C(C)C)[C@H]1CC[C@H]2C3=CC=C4C[C@@H](O)CCC4(C)[C@@H]3CC[C@]12C` (stereo partly drawn) [24(OH)L3], the EC50 is 3.6 µM in series [1] (setting [7]) and 1.3 µM in series [2] (setting [8]).

Regarding `CC(C)CCC[C@](C)(O)[C@H]1CC[C@H]2C3=CC=C4C[C@@H](O)CC[C@]4(C)[C@H]3CC[C@@]21C` [20(OH)7DHC, reference compound], in series [6], the Abcg5 expression result was “stimulated”, the Abcg8 expression entry is given as “inhibited”, the “ApoE (apolipoprotein E) expression” value is “inhibited” and the Cyp7a1 expression result is on record as “inhibited”. Also, the “Fas (fatty acid synthase) expression” value in series [6] was “stimulated”.

On to `C[C@H](CO)CCC[C@@H](C)[C@H]1CC[C@H]2C3=CC=C4C[C@@H](O)CC[C@@]4(C)[C@@H]3CC[C@]12C` [(25S)-27(OH)L3], for which the EC50 in series [1] (setting [7]) worked out at 0.026 µM; in series [2] (setting [8]), 0.0013 µM.

The values above are taken from paper PMC8044163, “Vitamin D and lumisterol derivatives can act on liver X receptors (LXRs)” (Scientific Reports, 2021).
